Reference: publication PMC5863483, “Low HLA binding of diabetes-associated CD8+ T-cell epitopes is increased by post translational modifications” (BMC Immunology, 2018)
*1 amine or outer side, *2 acyl side, *3 side chain or, on linkers, in order; H or OH if unused. Where a SMILES comes first, the peptide text is derived from it. Where no end group is shown, it is not given here. [ ]: non-standard residue; d: D form. γGlu = O=C(O)[C@H](CCC(=O)[*:2])N[*:1]; βAsp = O=C(O)[C@H](CC(=O)[*:2])N[*:1]; Cya = N[C@@H](CS(=O)(=O)O)C(=O)O; Cit = NC(=O)NCCC[C@H](N)C(=O)O

Target: HLA-A*02:01 (Homo sapiens, UniProt P04439, D140Y/D185E/D98H/E176V/E277Q/G131W/G231S/I119V/I121R/I166T/I218V/L300P/L318F/N151K/N90K/P208A/P217A/Q86G/Q94H/R138H/R169H/T345S)
Assay: HLA-peptide competition binding assay, A*02:01
Settings: not given

Compound | IC50
LLHVHHSCPL [reference compound] | 7840 nM
CC(C)C[C@H](NC(=O)[C@H](Cc1c[nH]cn1)NC(=O)[C@H](CO)NC(=O)CNC(=O)[C@H](CS(=O)(=O)O)NC(=O)[C@H](CC(C)C)NC(=O)[C@@H](N)Cc1c[nH]cn1)C(=O)N[C@H](C(=O)N[C@@H](CCC(=O)O)C(=O)N[C@@H](C)C(=O)O)C(C)C [HLBGSHLVEA] (H-HL[Cya]GSHLVEA-OH) | 6210 nM
C[C@@H](O)[C@H](NC(=O)[C@H](CCCCN)NC(=O)[C@@H]1CCCN1C(=O)[C@@H](NC(=O)[C@H](Cc1ccc(O)cc1)NC(=O)[C@H](Cc1ccccc1)NC(=O)[C@H](Cc1ccccc1)NC(=O)CN)[C@@H](C)O)C(=O)N[C@@H](CCCNC(N)=O)C(=O)O | 38400 nM
WMRLLPLLA | 1530 nM
CC(C)C[C@H](NC(=O)[C@H](C)NC(=O)[C@@H](N)CCC(=O)O)C(=O)N[C@@H](Cc1ccc(O)cc1)C(=O)N[C@@H](CC(C)C)C(=O)N[C@H](C(=O)N[C@@H](CS)C(=O)NCC(=O)N[C@@H](CCC(=O)O)C(=O)N[C@@H](CCCNC(N)=O)C(=O)O)C(C)C (H-EALYLVCGE[Cit]-OH) | 3100 nM
LLSILCIWV [reference compound] | 734 nM

Same assay, conditions: post-translationally modified insulin peptide; competition binding assay; a dash indicates IC50 >40,000 nM; read-out: A*02:01 binding (IC50 nM) Modified

Compound | IC50
VDEHLCGSHL | > 40000 nM
CC(C)C[C@H](NC(=O)[C@H](CC(=O)O)NC(=O)[C@H](CCC(=O)O)NC(=O)[C@H](C)NC(=O)[C@H](CCC(=O)O)NC(=O)[C@H](CCCNC(N)=O)NC(=O)[C@@H](N)CCCNC(N)=O)C(=O)N[C@@H](CCC(N)=O)C(=O)N[C@H](C(=O)O)C(C)C (H-[Cit][Cit]EAEDLQV-OH; N-terminus and C-terminus assumed) | > 40000 nM
CC(C)C[C@H](NC(=O)[C@H](C)NC(=O)[C@H](CCC(=O)O)NC(=O)[C@@H](NC(=O)[C@H](CC(C)C)NC(=O)[C@H](Cc1c[nH]cn1)NC(=O)[C@H](CO)NC(=O)CNC(=O)[C@@H](N)CS(=O)(=O)O)C(C)C)C(=O)O [BGSHLVEAL] (H-[Cya]GSHLVEAL-OH; N-terminus and C-terminus assumed) | > 40000 nM
VCGERGYFY | > 40000 nM
CC(C)C[C@H](NC(=O)[C@H](Cc1c[nH]cn1)NC(=O)[C@H](CO)NC(=O)CNC(=O)[C@H](CS(=O)(=O)O)NC(=O)[C@H](CC(C)C)NC(=O)[C@@H](N)Cc1c[nH]cn1)C(=O)N[C@H](C(=O)N[C@@H](CCC(=O)O)C(=O)O)C(C)C [HLBGSHLVE] (H-HL[Cya]GSHLVE-OH; N-terminus and C-terminus assumed) | > 40000 nM
CC(C)[C@H](N)C(=O)N[C@@H](CS(=O)(=O)O)C(=O)NCC(=O)N[C@@H](CCC(=O)O)C(=O)N[C@@H](CCCNC(=N)N)C(=O)NCC(=O)N[C@@H](Cc1ccc(O)cc1)C(=O)N[C@@H](Cc1ccc(O)cc1)C(=O)N[C@@H](Cc1ccc(O)cc1)C(=O)N[C@H](C(=O)O)[C@@H](C)O [VBGERGYYYT] (H-V[Cya]GERGYYYT-OH; N-terminus and C-terminus assumed) | > 40000 nM
CC(C)C[C@H](NC(=O)[C@H](Cc1c[nH]cn1)NC(=O)CC[C@H](NC(=O)C[C@H](NC(=O)[C@@H](NC(=O)[C@@H](N)Cc1ccccc1)C(C)C)C(=O)O)C(=O)O)C(=O)N[C@@H](CS)C(=O)NCC(=O)N[C@@H](CO)C(=O)O [FVOZHLCGS] (H-FV[βAsp][γGlu]HLCGS-OH; N-terminus and C-terminus assumed) | > 40000 nM

More lines, now with the values ahead:

IC50 | Compound
> 40000 nM | C[C@H](NC(=O)[C@H](CCC(=O)O)NC(=O)[C@H](CCCNC(N)=O)NC(=O)[C@H](CCCNC(N)=O)NC(=O)[C@@H](NC(=O)[C@H](CCCCN)NC(=O)[C@@H]1CCCN1C(=O)[C@@H](NC(=O)[C@@H](N)Cc1ccc(O)cc1)[C@@H](C)O)[C@@H](C)O)C(=O)N[C@@H](CCC(=O)O)C(=O)O (H-YTPKT[Cit][Cit]EAE-OH; N-terminus and C-terminus assumed)
> 40000 nM | CGERGYFYTP
> 40000 nM | CC(C)[C@H](N)C(=O)N[C@@H](CS(=O)(=O)O)C(=O)NCC(=O)N[C@@H](CCC(=O)O)C(=O)N[C@@H](CCCNC(=N)N)C(=O)NCC(=O)N[C@@H](Cc1ccc(O)cc1)C(=O)N[C@@H](Cc1ccc(O)cc1)C(=O)N[C@@H](Cc1ccc(O)cc1)C(=O)O [VBGERGYYY] (H-V[Cya]GERGYYY-OH; N-terminus and C-terminus assumed)
> 40000 nM | C[C@H](NC(=O)[C@H](CCC(=O)O)NC(=O)[C@H](CCCNC(N)=O)NC(=O)[C@H](CCCNC(N)=O)NC(=O)[C@@H](NC(=O)[C@H](CCCCN)NC(=O)[C@@H]1CCCN1)[C@@H](C)O)C(=O)N[C@@H](CCC(=O)O)C(=O)N[C@@H](CC(=O)O)C(=O)O [PKTUUEAED] (H-PKT[Cit][Cit]EAED-OH; N-terminus and C-terminus assumed)
> 40000 nM | CC(C)C[C@H](NC(=O)[C@H](C)N)C(=O)N[C@@H](CCC(=O)O)C(=O)NCC(=O)N[C@@H](CO)C(=O)N[C@@H](CC(C)C)C(=O)N[C@@H](CCC(N)=O)C(=O)N[C@@H](CCCCN)C(=O)N[C@@H](CCCNC(N)=O)C(=O)O (H-ALEGSLQK[Cit]-OH; N-terminus and C-terminus assumed)
> 40000 nM | CC[C@H](C)[C@H](NC(=O)CNC(=O)[C@H](CCCNC(N)=O)NC(=O)[C@H](CCCCN)NC(=O)[C@H](CCC(N)=O)NC(=O)[C@H](CC(C)C)NC(=O)[C@@H](N)CO)C(=O)N[C@H](C(=O)N[C@@H](CCC(=O)O)C(=O)N[C@@H](CCC(N)=O)C(=O)O)C(C)C (H-SLQK[Cit]GIVEQ-OH; N-terminus and C-terminus assumed)

Same assay, conditions: post-translationally modified insulin-derived peptide; radiolabeled ligand competition, purified MHC, two-day incubation, three or more independent experiments; read-out: A*02:01 binding, Modified

IC50 | Compound
12500 nM | CC(C)C[C@H](NC(=O)[C@H](Cc1ccc(O)cc1)NC(=O)[C@@H](N)CC(C)C)C(=O)N[C@H](C(=O)N[C@@H](CS)C(=O)NCC(=O)N[C@@H](CCC(=O)O)C(=O)N[C@@H](CCCNC(N)=O)C(=O)NCC(=O)O)C(C)C

Same assay, conditions: read-out: A*02:01 binding (IC50 nM) Modified

IC50 | Compound
22300 nM | CC(C)C[C@H](NC(=O)[C@H](CC(=O)O)NC(=O)[C@H](CCC(=O)O)NC(=O)[C@H](C)NC(=O)[C@H](CCC(=O)O)NC(=O)[C@H](CCCNC(N)=O)NC(=O)[C@H](CCCNC(N)=O)NC(=O)[C@@H](NC(=O)[C@@H](N)CCCCN)[C@@H](C)O)C(=O)N[C@@H](CCC(N)=O)C(=O)O (H-KT[Cit][Cit]EAEDLQ-OH)
2420 nM | CC(C)C[C@H](NC(=O)[C@@H](N)Cc1ccc(O)cc1)C(=O)N[C@H](C(=O)N[C@@H](CS(=O)(=O)O)C(=O)NCC(=O)N[C@@H](CCC(=O)O)C(=O)N[C@@H](CCCNC(=N)N)C(=O)NCC(=O)N[C@@H](Cc1ccc(O)cc1)C(=O)N[C@@H](Cc1ccc(O)cc1)C(=O)O)C(C)C [YLVBGERGYY] (H-YLV[Cya]GERGYY-OH)
148 nM | CSCC[C@H](NC(=O)[C@H](Cc1c[nH]c2ccccc12)NC(=O)[C@@H](N)CC(C)C)C(=O)N[C@@H](CCCNC(N)=O)C(=O)N[C@@H](CC(C)C)C(=O)N[C@@H](CC(C)C)C(=O)N1CCC[C@H]1C(=O)N[C@@H](CC(C)C)C(=O)N[C@@H](CC(C)C)C(=O)O (H-LWM[Cit]LLPLL-OH)

Same assay, conditions: read-out: A*02:01 binding (IC50 nM) Modified; post-translationally modified insulin peptide; competition binding assay; a dash indicates IC50 >40,000 nM

Compound | IC50
GERGYYYTP | > 40000 nM

Same assay, conditions: read-out: A*02:01 binding (IC50 nM) WT

IC50 | Compound
23700 nM | REAEDLQVGQ
1350 nM | LCGSHLVEA
6640 nM | VNQHLCGSHL
8870 nM | VEALYLVCGE

Same assay, conditions: read-out: IC50 nM, target assay A*02:01

Compound | IC50
SLEEEIRFL [reference compound] | 472 nM
LLDVAPLSL [reference compound] | 51 nM
ILMHCQTTL [reference compound] | 478 nM
TVASRLGPV [reference compound] | 7700 nM
FLFAVGFYL [reference compound] | 1.1 nM
CC[C@H](C)[C@H](NC(=O)[C@H](CO)NC(=O)[C@@H](NC(=O)[C@H](CS)NC(=O)[C@H](CS)NC(=O)[C@H](CCC(N)=O)NC(=O)[C@H](CCC(=O)O)NC(=O)[C@@H](NC(=O)[C@@H](NC(=O)CN)[C@@H](C)CC)C(C)C)[C@@H](C)O)C(=O)O [reference compound] (H-GIVEQCCTSI-OH) | 7450 nM
MVWESGCTV [reference compound] | 126 nM
WLLPLWAALPL [reference compound] | 3.2 nM
LMFWSPSHSCA [reference compound] | 143 nM
TIADFWQMV [reference compound] | 4690 nM
LLLLDVAPL [reference compound] | 10 nM

The remaining lines, values ahead:

IC50 | Compound
8230 nM | CC(C)C[C@H](NC(=O)[C@@H](N)CCCNC(=N)N)C(=O)N[C@@H](CCCNC(=N)N)C(=O)N1CCC[C@H]1C(=O)N[C@@H](CC(C)C)C(=O)N[C@@H](CS)C(=O)N[C@@H](CS)C(=O)N[C@H](C(=O)N[C@@H](C)C(=O)O)[C@@H](C)O [reference compound] (H-RLRPLCCTA-OH)
26 nM | FLWSVFMLI [reference compound]
55 nM | FLWSVFWLI [reference compound]
104 nM | TMHSLTIQM [reference compound]
149 nM | VLFGLGFAI [reference compound]
29 nM | ALARGAGTVPL [reference compound]
216 nM | HIAGSLAVV [reference compound]

Same assay, conditions: unmodified (WT) insulin peptide; competition binding assay; a dash indicates IC50 >40,000 nM; read-out: A*02:01 binding (IC50 nM) WT

Compound | IC50
ALEGSLQKRG | > 40000 nM
C[C@@H](O)[C@H](NC(=O)[C@H](Cc1ccc(O)cc1)NC(=O)[C@H](Cc1ccccc1)NC(=O)[C@H](Cc1ccccc1)NC(=O)CNC(=O)[C@H](CCCNC(=N)N)NC(=O)[C@H](CCC(=O)O)NC(=O)CN)C(=O)N1CCC[C@H]1C(=O)N[C@@H](CCCCN)C(=O)O | > 40000 nM
C[C@@H](O)[C@H](NC(=O)[C@H](CCCCN)NC(=O)[C@@H]1CCCN1C(=O)[C@@H](NC(=O)[C@H](Cc1ccc(O)cc1)NC(=O)[C@H](Cc1ccccc1)NC(=O)[C@H](Cc1ccccc1)NC(=O)CNC(=O)[C@@H](N)CCCNC(=N)N)[C@@H](C)O)C(=O)O | > 40000 nM

Other lines, results leading:

IC50 | Compound
> 40000 nM | VCGERGFFY
> 40000 nM | RREAEDLQV
> 40000 nM | GSLQKRGIVE [GSLQKRGIVE]

Same assay, conditions: unmodified (wild type) insulin-derived peptide; radiolabeled ligand competition, purified MHC, two-day incubation, three or more independent experiments; read-out: A*02:01 binding, WT

IC50 | Compound
> 40000 nM | C[C@@H](O)[C@H](NC(=O)[C@H](CCCCN)NC(=O)[C@@H]1CCCN1C(=O)[C@@H](NC(=O)[C@H](Cc1ccc(O)cc1)NC(=O)[C@H](Cc1ccccc1)NC(=O)[C@H](Cc1ccccc1)NC(=O)CNC(=O)[C@@H](N)CCCNC(=N)N)[C@@H](C)O)C(=O)O
